What is called EC50 is the concentration that produces a half-maximal response.

Test [1] has as its target T1, ΔF508-CFTR (Homo sapiens, UniProt P13569, DEL508-508).
T1 construct: host or cells: CFBE41o-, doxycycline-inducible
As to the kind of experiment: CFTR cell surface levels using HRP-tagged ΔF508-CFTR expressing CFBE cells, intrinsic corrector capacity. It counts as cell-based. The settings on record: for EC50: read-out: EC50. The method, boiled down:
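Here the cells express ΔF508-CFTR with horseradish peroxidase inserted in extracellular loop 4, so only rescued channel at the surface gives luminescent signal. Compounds act on their own, 20 h at the reduced temperature of 33 °C; values are percent activity relative to DMSO and a 3 μM corrector.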

For test [2], the target named is T1, ΔF508-CFTR. Briefly: CFTR cell surface levels using HRP-tagged ΔF508-CFTR expressing CFBE cells, in the presence of a co-corrector. It counts as cell-based. As to conditions: HRP-tagged ΔF508-CFTR expressing CFBE cells, in the presence of 3 μM co-corrector; for EC50: read-out: EC50. The method, boiled down:
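Cells were seeded with 0.5 μg/mL doxycycline and held 68 h at 37 °C. Test compounds plus 3 μM co-corrector (final 0.1% DMSO) were then added for 20 h at 33 °C. Washed cells received HRP substrate, and luminescence was normalized between DMSO and 3 μM co-corrector controls.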

Where [3] appears, read: HRP-tagged ΔF508-CFTR CFBE41o- cells, compounds alone (intrinsic corrector capacity), 20 hours at 33° C., positive control 3 μM corrector.
The mark [4] stands for this setting: HRP-tagged ΔF508-CFTR CFBE41o- cells, compounds alone (intrinsic corrector capacity), 20 hours at 33° C.
Setting [5] is: HRP-tagged ΔF508-CFTR expressing CFBE cells, intrinsic corrector capacity (no co-corrector), 33° C., 20 hours.

T1 sequence (P13569 with tags, fused parts or gaps DEL508-508): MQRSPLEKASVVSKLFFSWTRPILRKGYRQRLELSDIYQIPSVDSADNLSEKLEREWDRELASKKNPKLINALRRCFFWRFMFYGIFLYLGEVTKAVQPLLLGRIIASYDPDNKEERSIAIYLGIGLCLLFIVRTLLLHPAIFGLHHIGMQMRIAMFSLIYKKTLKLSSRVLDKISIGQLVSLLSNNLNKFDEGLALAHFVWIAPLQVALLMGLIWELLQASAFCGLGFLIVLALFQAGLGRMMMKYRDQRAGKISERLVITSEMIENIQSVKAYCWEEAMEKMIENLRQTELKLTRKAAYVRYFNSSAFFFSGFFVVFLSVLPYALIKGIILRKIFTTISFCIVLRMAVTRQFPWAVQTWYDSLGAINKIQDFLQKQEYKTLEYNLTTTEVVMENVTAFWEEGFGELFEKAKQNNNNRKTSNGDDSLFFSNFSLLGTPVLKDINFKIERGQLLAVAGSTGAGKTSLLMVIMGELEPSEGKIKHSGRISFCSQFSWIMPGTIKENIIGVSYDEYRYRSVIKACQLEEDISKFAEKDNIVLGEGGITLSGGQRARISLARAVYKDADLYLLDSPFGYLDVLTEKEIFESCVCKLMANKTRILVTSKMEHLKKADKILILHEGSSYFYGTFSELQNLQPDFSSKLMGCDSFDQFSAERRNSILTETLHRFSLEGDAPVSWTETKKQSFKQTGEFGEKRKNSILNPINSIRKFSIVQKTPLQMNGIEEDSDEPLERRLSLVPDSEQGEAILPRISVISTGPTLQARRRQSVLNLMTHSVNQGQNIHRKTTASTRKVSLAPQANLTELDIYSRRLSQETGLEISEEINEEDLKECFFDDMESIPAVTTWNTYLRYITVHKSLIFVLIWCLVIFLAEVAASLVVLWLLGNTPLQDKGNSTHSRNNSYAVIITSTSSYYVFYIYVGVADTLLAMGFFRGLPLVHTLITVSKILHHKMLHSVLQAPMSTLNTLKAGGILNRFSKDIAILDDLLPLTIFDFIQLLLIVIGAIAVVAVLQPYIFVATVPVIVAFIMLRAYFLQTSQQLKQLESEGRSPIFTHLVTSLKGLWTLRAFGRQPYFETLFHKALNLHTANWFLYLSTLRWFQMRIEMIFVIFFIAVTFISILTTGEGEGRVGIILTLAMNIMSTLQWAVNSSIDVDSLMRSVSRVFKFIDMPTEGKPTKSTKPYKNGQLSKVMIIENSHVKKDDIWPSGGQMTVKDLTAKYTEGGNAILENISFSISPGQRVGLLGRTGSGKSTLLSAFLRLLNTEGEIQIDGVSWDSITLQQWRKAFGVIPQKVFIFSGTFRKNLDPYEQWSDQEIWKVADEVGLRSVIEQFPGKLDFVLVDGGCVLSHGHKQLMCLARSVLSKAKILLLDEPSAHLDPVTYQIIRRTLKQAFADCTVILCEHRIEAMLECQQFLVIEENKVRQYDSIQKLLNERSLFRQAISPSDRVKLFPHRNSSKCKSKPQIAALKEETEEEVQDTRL

Regarding `Cc1cccc(-n2nc(C(C)C)c3c(N4CCC(S(C)(=O)=O)C4)cc(C(=O)O)nc32)c1` (centres unmarked) [compound 272, 4-[3-(methanesulfonyl)pyrrolidin-1-yl]-1-(3-methylphenyl)-3-(propan-2-yl)-1H-pyrazolo[3,4-b]pyridine-6-carboxylic acid], the “% Activation” value was 135.5% on ΔF508-CFTR [1] (setting [3]) and 319.6% at ΔF508-CFTR [2]. For the same compound, the EC50 at ΔF508-CFTR [1] (setting [4]) and on ΔF508-CFTR [2] was 3340 nM throughout.

As to `CC(C)c1nn(-c2cccc(N3CCOCC3)c2)c2nc(C(=O)O)cc(-c3ccc(N4CCOCC4)cc3)c12` [compound 121, 1-[3-(morpholin-4-yl)phenyl]-4-[4-(morpholin-4-yl)phenyl]-3-(propan-2-yl)-1H-pyrazolo[3,4-b]pyridine-6-carboxylic acid], the “% Activation” value worked out at 401.5% on ΔF508-CFTR [1] (setting [3]) and 603.1% at ΔF508-CFTR [2]. Besides, the 50% effective concentration (EC50) was determined as 528 nM on ΔF508-CFTR [1] (setting [4]) and 758 nM at ΔF508-CFTR [2].

For the compound `CC(C)c1nn(C2CCCCC2)c2nc(C(=O)O)cc(-c3ccc(N(C)C4CCOCC4)cc3)c12` [compound 254, 1-cyclohexyl-4-{4-[methyl(oxan-4-yl)amino]phenyl}-3-(propan-2-yl)-1H-pyrazolo[3,4-b]pyridine-6-carboxylic acid], the “% Activation” value is 234.6% on ΔF508-CFTR [1] (setting [3]) and 417.67% at ΔF508-CFTR [2]. Besides, the concentration giving a half-maximal response (EC50) on ΔF508-CFTR [1] (setting [4]) turned out to be 611 nM; at ΔF508-CFTR [2] it was 333 nM.

Consider `CC(C)c1nn(-c2cccc(F)c2)c2nc(C(=O)O)cc(-c3ccc(N(C)C4CCOCC4)cc3)c12` [compound 284, 1-(3-fluorophenyl)-4-{4-[nethyl(oxan-4-yl)amino]phenyl}-3-(propan-2-yl)-1H-pyrazolo[3,4-b]pyridine-6-carboxylic acid], for which the entries for the “% Activation” value on ΔF508-CFTR [1] (setting [3]) and on ΔF508-CFTR [2] were 240.8% and 435.23%, respectively. Further, the concentration for a half-maximal effect (EC50) was found to be 501 nM on ΔF508-CFTR [1] (setting [4]) and 282 nM on ΔF508-CFTR [2].

As to `O=C(O)c1cc(OCCC2OCCCO2)c2c(C3CCC3)nn(-c3ccccc3)c2n1` [compound 488, 3-cyclobutyl-4-[2-(1,3-dioxan-2-yl)ethoxy]-1-phenyl-1H-pyrazolo[3,4-b]pyridine-6-carboxylic acid], the “% Activation” value at ΔF508-CFTR [1] (setting [5]) is recorded as 95.49%; at ΔF508-CFTR [2], 261.9%. Besides, the results for the half-maximal effective concentration (EC50) at ΔF508-CFTR [1] (setting [5]) and on ΔF508-CFTR [2] were 755 nM and 462 nM, respectively.

On to `N#CC1CCN(c2ccc(-c3cc(C(=O)O)nc4c3c(C3CCC3)nn4C3CCCCC3)cc2)CC1` [compound 219, 4-[4-(4-cyanopiperidin-1-yl)phenyl]-3-cyclobutyl-1-cyclohexyl-1H-pyrazolo[3,4-b]pyridine-6-carboxylic acid], for which the “% Activation” value came to 248.7% at ΔF508-CFTR [1] (setting [3]) and 474.5% at ΔF508-CFTR [2]. Besides, the half-maximal effective concentration (EC50) is 518 nM at ΔF508-CFTR [1] (setting [4]) and 365 nM at ΔF508-CFTR [2].

Consider `Cc1nn(-c2ccccc2)c2nc(C(=O)O)cc(O[C@H]3CCN(C)C3)c12` [compound 337, 3-methyl-4-{[(3S)-1-methylpyrrolidin-3-yl]oxy}-1-phenyl-1H-pyrazolo[3,4-b]pyridine-6-carboxylic acid], for which the “% Activation” value on ΔF508-CFTR [1] (setting [3]) was 15.48%; on ΔF508-CFTR [2], 139.85%. For the same compound, the EC50 on ΔF508-CFTR [1] (setting [4]) is 7500 nM; on ΔF508-CFTR [2], 4170 nM.

On to `Cc1nn(-c2ccccc2)c2nc(C(=O)O)cc(-c3ccc(N4CCCC(O)C4)cc3)c12` (centres unmarked) [compound 198, 4-[4-(3-hydroxypiperidin-1-yl)phenyl]-3-methyl-1-phenyl-1H-pyrazolo[3,4-b]pyridine-6-carboxylic acid], for which the “% Activation” value on ΔF508-CFTR [1] (setting [3]) worked out at 220%; on ΔF508-CFTR [2], 364%. For the same compound, the EC50 on ΔF508-CFTR [1] (setting [4]) came to 1120 nM; on ΔF508-CFTR [2] it was 1010 nM.

For the compound `CC(C)Oc1nn(C2CCCCC2)c2nc(C(=O)O)cc(-c3ccc(CN4CCN(C5CC5)CC4)cc3)c12` [compound 884, 1-cyclohexyl-4-{4-[(4-cyclopropylpiperazin-1-yl)methyl]phenyl}-3-[(propan-2-yl)oxy]-1H-pyrazolo[3,4-b]pyridine-6-carboxylic acid], the “% Activation” value on ΔF508-CFTR [1] (setting [5]) worked out at 140.6%; at ΔF508-CFTR [2], 377.6%. Moreover, the EC50 came out at 298 nM at ΔF508-CFTR [1] (setting [5]) and 214 nM on ΔF508-CFTR [2].

For the compound `CC(C)c1nn(-c2cccc(N(C)C)c2)c2nc(C(=O)O)cc(OCC3CCOCC3)c12` [compound 602, 1-[3-(dimethylamino)phenyl]-4-[(oxan-4-yl)methoxy]-3-(propan-2-yl)-1H-pyrazolo[3,4-b]pyridine-6-carboxylic acid], the entries for the “% Activation” value on ΔF508-CFTR [1] (setting [5]) and at ΔF508-CFTR [2] were 159.3% and 393.4%, respectively. Further, the concentration for a half-maximal effect (EC50) was found to be 256 nM on ΔF508-CFTR [1] (setting [5]) and 134 nM on ΔF508-CFTR [2].

For `Cc1nn(-c2ccccc2)c2nc(C(=O)O)cc(-c3ccc(N4CCOCC4)cc3Cl)c12` [compound 26, 4-[2-chloro-4-(morpholin-4-yl)phenyl]-3-methyl-1-phenyl-1H-pyrazolo[3,4-b]pyridine-6-carboxylic acid], the “% Activation” value at ΔF508-CFTR [1] (setting [3]) was determined as 83.24%; at ΔF508-CFTR [2], 258.4%. The results for the 50% effective concentration (EC50) on ΔF508-CFTR [1] (setting [4]) and on ΔF508-CFTR [2] were 1270 nM and 1090 nM, respectively.

In the case of `O=C(O)c1cc(OCCN2CCC3(CC2)OCCO3)c2c(C3CCC3)nn(-c3ccccc3)c2n1` [compound 623, 3-cyclobutyl-4-[2-(1,4-dioxa-8-azaspiro[4.5]decan-8-yl)ethoxy]-1-phenyl-1H-pyrazolo[3,4-b]pyridine-6-carboxylic acid], the “% Activation” value on ΔF508-CFTR [1] (setting [5]) was determined as 106.8%; at ΔF508-CFTR [2], 308.3%. Moreover, the EC50 was determined as 1160 nM at ΔF508-CFTR [1] (setting [5]) and 501 nM on ΔF508-CFTR [2].

Consider `COC1CCN(C2CCN(c3cc(C(=O)O)nc4c3c(O)nn4-c3ccc(F)cc3)CC2)CC1` [compound 925, 1-(4-fluorophenyl)-3-hydroxy-4-(4-methoxy[1,4′-bipiperidin]-1′-yl)-1H-pyrazolo[3,4-b]pyridine-6-carboxylic acid], for which the “% Activation” value amounted to 11.745% on ΔF508-CFTR [1] (HRP-tagged ΔF508-CFTR CFBE cells, compound alone (intrinsic corrector capacity), 20 hours at 33° C.) and 126.05% on ΔF508-CFTR [2].

As to `CC(C)c1nn(-c2cccc(N3CCCC3)c2)c2nc(C(=O)O)cc(-c3ccc(N4CCC(C#N)CC4)cc3)c12` [compound 221, 4-[4-(4-cyanopiperidin-1-yl)phenyl]-3-(propan-2-yl)-1-[3-(pyrrolidin-1-yl)phenyl]-1H-pyrazolo[3,4-b]pyridine-6-carboxylic acid], the “% Activation” value was 429% at ΔF508-CFTR [1] (setting [3]) and 645.97% at ΔF508-CFTR [2]. The EC50 on ΔF508-CFTR [1] (setting [4]) is 315 nM; at ΔF508-CFTR [2], 283 nM.

Take `COC(C)(C1CCN(c2cc(C(=O)O)nc3c2c(C2CCC2)nn3-c2ccccc2)CC1)C(F)(F)F` (centres unmarked) [compound 499, 3-cyclobutyl-1-phenyl-4-[4-(1,1,1-trifluoro-2-methoxypropan-2-yl)piperidin-1-yl]-1H-pyrazolo[3,4-b]pyridine-6-carboxylic acid]: the “% Activation” value at ΔF508-CFTR [1] (setting [5]) worked out at 242.93%; on ΔF508-CFTR [2] it was 435.6%. For the same compound, the concentration for a half-maximal effect (EC50) on ΔF508-CFTR [1] (setting [5]) came to 393 nM; on ΔF508-CFTR [2], 200 nM.

Consider `CC(C)c1nn(-c2cccc(N(C)C)c2)c2nc(C(=O)O)cc(N3CCC(C#N)CC3)c12` [compound 329, 4-(4-cyanopiperidin-1-yl)-1-[3-(dimethylamino)phenyl]-3-(propan-2-yl)-1H-pyrazolo[3,4-b]pyridine-6-carboxylic acid], for which the “% Activation” value at ΔF508-CFTR [1] (setting [3]) turned out to be 239.4%; at ΔF508-CFTR [2], 454.57%. Besides, the figures for the EC50 at ΔF508-CFTR [1] (setting [4]) and at ΔF508-CFTR [2] were 558 nM and 307 nM, respectively.

The values are drawn from patent US9796711B2, “Substituted pyrazolo[3,4-b]pyridin-6-carboxylic acids and method of use” (AbbVie S.àr.l., priority 2015, dated 2017).
